From patent US20260345619A1 (Principia Biopharma Inc., priority 2023, published 2026)

Test: Loss of asthma control (LOAC) events, 12-week ICS/LABA withdrawal study
Format: in vivo, human
Source text: The general construct of this 12-week Loss of Asthma Control (LOAC) study consisted of a 4-week standardized ICS/LABA background therapy stabilization phase, a 4or 5-week background therapy withdrawal phase and a 3- or 4-week no background therapy phase, followed by a 4-week post IMP treatment safety follow-up period at the beginning of which, pre-screening asthma controller medications are restarted. Participants had access to short-acting β-agonist (SABA) reliever medication at all times during the protocol.
The primary endpoint was the proportion of patients with LOAC. The key secondary endpoint for the study was change in pre-bronchodilator FEV1 from baseline at EOT.
The primary endpoint was proportion of participants with LOAC during the 12-week treatment period.
Note that if the number of participants in some regions was too low, these regions may have been pooled with other regions. This strategy also applied to all the rest of the analyses where region was one of the covariates.
To assess the consistency in treatment effects across different subgroup levels, subgroup analyses were to be performed for the primary efficacy endpoint with respect to age group, gender, region, and other factors.
Secondary endpoints included pre-bronchodilator FEV1 change from baseline at EOT, ACQ-5 score change from baseline, and AQLQ score change from baseline. Other secondary and exploratory endpoints are described in Table 2.

[1] = 400 mg BID cohort, Latin America, n = 25
[2] = 400 mg BID cohort, N = 32, mITT
[3] = 400 mg BID cohort, age <45 years, n = 12
[4] = 400 mg BID cohort, age ≥45 years, n = 20
[5] = 400 mg BID cohort, baseline BMI <25 kg/m^2, n = 8
[6] = 400 mg BID cohort, baseline BMI ≥25-<30 kg/m^2, n = 16
[7] = 400 mg BID cohort, baseline BMI ≥30 kg/m^2, n = 8
[8] = 400 mg BID cohort, baseline weight ≥60-<90 kg, n = 23
[9] = 400 mg BID cohort, female, n = 18
[10] = 400 mg BID cohort, male, n = 14
[11] = 400 mg BID, N=32, 12 weeks, mITT
[12] = 400 mg BID, 1 exacerbation within 2 years
[13] = 400 mg BID, 2 exacerbations within 2 years
[14] = 400 mg BID, >2 exacerbations within 2 years
[15] = 400 mg BID, FEV1 reversibility <12 %
[16] = 400 mg BID, FEV1 reversibility ≥12 %
[17] = 400 mg BID, age at onset <12 years
[18] = 400 mg BID, age at onset <18 years
[19] = 400 mg BID, age at onset ≥12-<18 years
[20] = 400 mg BID, age at onset ≥18-<40 years

CC(C)(C=C(C#N)C(=O)N1CCC[C@@H](n2nc(-c3ccc(Oc4ccccc4)cc3F)c3c(N)ncnc32)C1)N1CCN(C2COC2)CC1 (mixture of isomers) [rilzabrutinib, (R)-2-[3-[4-amino-3-(2-fluoro-4-phenoxy-phenyl)pyrazolo[3,4-d]pyrimidin-1-yl]piperidine-1-carbonyl]-4-methyl-4-[4-(oxetan-3-yl)piperazin-1-yl]pent-2-enenitrile]
LOAC incidence, number of participants (400 mg BID cohort, APAC, n = 2): 2 | LOAC incidence, percentage (400 mg BID cohort, APAC, n = 2): (100) | LOAC incidence, number of participants (400 mg BID cohort, Eastern Europe, n = 3): 1 | LOAC OR vs. placebo (400 mg BID cohort, Eastern Europe, 95% CI (0.023, 11.088)): 0.500 | LOAC RD vs. placebo (400 mg BID cohort, Eastern Europe, 95% CI (−0.891, 0.558)): −0.167 | LOAC incidence, number of participants [1]: 9 | LOAC incidence, percentage [1]: (36.0) | LOAC OR vs. placebo (400 mg BID cohort, Latin America, 95% CI (0.230, 2.230)): 0.716 | LOAC RD vs. placebo (400 mg BID cohort, Latin America, 95% CI (−0.351, 0.191)): −0.080 | Intervention discontinuation due to lack of efficacy or an AE related to asthma worsening, number [2]: 0 | Number of participants requiring hospitalization or emergency room visit [2]: 0 | Number of participants with LOAC: No [2]: 20 | Number of participants with LOAC: Yes [2]: 12 | Number of participants with increase in ICS ≥4 times the last prescribed ICS dose (or ≥50% of the prescribed ICS dose at baseline if background therapy withdrawal completed) [2]: 1 | Number of participants with ≥6 additional reliever puffs of salbutamol/albuterol or levosalbutamol/levalbuterol in a 24 hour period (compared with baseline) on 2 consecutive days [2]: 2 | Number of participants with ≥30% reduction from baseline in AM PEF on 2 consecutive days [2]: 6 | Participants with LOAC not triggered by use of rescue medication, number [2]: 6 | Participants with LOAC not triggered by use of rescue medication, percentage [2]: (18.8) | Participants with LOAC triggered by use of rescue medication, number [2]: 6 | Participants with LOAC triggered by use of rescue medication, percentage [2]: (18.8) | Percentage of participants with LOAC: No [2]: (62.5) | Percentage of participants with LOAC: Yes [2]: (37.5) | Percentage of participants with increase in ICS ≥4 times the last prescribed ICS dose (or ≥50% of the prescribed ICS dose at baseline if background therapy withdrawal completed) [2]: (3.1) | Percentage of participants with ≥6 additional reliever puffs of salbutamol/albuterol or levosalbutamol/levalbuterol in a 24 hour period (compared with baseline) on 2 consecutive days [2]: (6.3) | Percentage of participants with ≥30% reduction from baseline in AM PEF on 2 consecutive days [2]: (18.8) | LOAC incidence, number of participants (400 mg BID cohort, Western Countries, n = 2): 0 | LOAC incidence, number of participants [3]: 6 | LOAC incidence, percentage [3]: (50.0) | LOAC OR vs. placebo (400 mg BID cohort, age <45 years, 95% CI (0.342, 18.129)): 2.489 | LOAC RD vs. placebo (400 mg BID cohort, age <45 years, 95% CI (−0.266, 0.634)): 0.184 | LOAC incidence, number of participants [4]: 6 | LOAC incidence, percentage [4]: (30.0) | LOAC OR vs. placebo (400 mg BID cohort, age ≥45 years, 95% CI (0.069, 1.023)): 0.266 | LOAC RD vs. placebo (400 mg BID cohort, age ≥45 years, 95% CI (−0.583, −0.007)): −0.295 | LOAC incidence, number of participants [5]: 3 | LOAC incidence, percentage [5]: (37.5) | LOAC OR vs. placebo (400 mg BID cohort, baseline BMI <25 kg/m^2, 95% CI (0.033, 2.763)): 0.300 | LOAC RD vs. placebo (400 mg BID cohort, baseline BMI <25 kg/m^2, 95% CI (−0.796, 0.213)): −0.292 | LOAC incidence, number of participants [6]: 6 | LOAC incidence, percentage [6]: (37.5) | LOAC OR vs. placebo (400 mg BID cohort, baseline BMI ≥25-<30 kg/m^2, 95% CI (0.168, 2.709)): 0.675 | LOAC RD vs. placebo (400 mg BID cohort, baseline BMI ≥25-<30 kg/m^2, 95% CI (−0.431, 0.240)): −0.096 | LOAC incidence, number of participants [7]: 3 | LOAC incidence, percentage [7]: (37.5) | LOAC OR vs. placebo (400 mg BID cohort, baseline BMI ≥30 kg/m^2, 95% CI (0.107, 5.238)): 0.750 | LOAC RD vs. placebo (400 mg BID cohort, baseline BMI ≥30 kg/m^2, 95% CI (−0.536, 0.397)): −0.069 | LOAC incidence, number of participants (400 mg BID cohort, baseline weight <60 kg, n = 3): 0 | LOAC incidence, number of participants [8]: 10 | LOAC incidence, percentage [8]: (43.5) | LOAC OR vs. placebo (400 mg BID cohort, baseline weight ≥60-<90 kg, 95% CI (0.366, 3.640)): 1.154 | LOAC RD vs. placebo (400 mg BID cohort, baseline weight ≥60-<90 kg, 95% CI (−0.244, 0.314)): 0.035 | LOAC incidence, number of participants (400 mg BID cohort, baseline weight ≥90 kg, n = 6): 2 | LOAC OR vs. placebo (400 mg BID cohort, baseline weight ≥90 kg, 95% CI (0.013, 4.729)): 0.250 | LOAC RD vs. placebo (400 mg BID cohort, baseline weight ≥90 kg, 95% CI (−0.987, 0.320)): −0.333 | LOAC incidence, number of participants [9]: 7 | LOAC incidence, percentage [9]: (38.9) | LOAC OR vs. placebo (400 mg BID cohort, female, 95% CI (0.076, 1.263)): 0.311 | LOAC RD vs. placebo (400 mg BID cohort, female, 95% CI (−0.560, 0.045)): −0.258 | LOAC incidence, number of participants [10]: 5 | LOAC incidence, percentage [10]: (35.7) | LOAC OR vs. placebo (400 mg BID cohort, male, 95% CI (0.173, 24.590)): 2.062 | LOAC RD vs. placebo (400 mg BID cohort, male, 95% CI (−0.420, 0.931)): 0.256 | participants without LOAC, number [11]: 20 | participants without LOAC, percent [11]: (62.5) | participants with LOAC, number (400 mg BID, N=32, 12 weeks, mITT, placebo 16): 12 | RRR vs. placebo (%), LOAC (400 mg BID, mITT): 24.4% | RR vs. placebo, LOAC (400 mg BID, mITT, 95% CI 0.433, 1.319): 0.756 | RD (risk difference) vs. placebo, LOAC (400 mg BID, mITT, 95% CI −0.361, 0.115): −0.123 | OR vs. placebo [12]: 1.218 | RD vs. Placebo [12]: 0.059 | LOAC, number [13]: 4 | OR vs. placebo [13]: 0.471 | RD vs. Placebo [13]: −0.199 | LOAC, number [14]: 3 | OR vs. placebo [14]: 0.508 | OR vs. placebo [15]: 0.611 | RD vs. Placebo [15]: −0.119 | LOAC, number [16]: 6 | OR vs. placebo [16]: 0.533 | RD vs. Placebo [16]: −0.156 | LOAC, number [17]: 4 | OR vs. placebo [17]: 2.000 | RD vs. Placebo [17]: 0.159 | OR vs. placebo [18]: 1.402 | RD vs. Placebo [18]: 0.126 | LOAC, number [19]: 1 | OR vs. placebo [19]: 0.250 | RD vs. Placebo [19]: −0.300 | LOAC, number [20]: 4 | OR vs. placebo [20]: 0.267
